Tests used:
Format in all cases: in vivo, SD (Sprague Dawley) rats
[1] = test system: 5α-reductase; experiment: RT-qPCR genetic expression of 5α-reductase in the prostate; conditions: finasteride group, 0.28 mg/kg, compared with the model group
[2] = test system: prostate tissue of benign prostatic hyperplasia rats; experiment: prostate tissue appearance and HE stain morphology in benign prostatic hyperplasia rats; conditions: finasteride group, 0.28 mg/kg
Description: The drug is administrated by gavage once a day; after administrating for consecutive 6 days, administration is stopped for one day; and an administration cycle is 4 week. killing the SD rats, separating the prostate of the SD rats through the tweezers, and weighing the prostate; […]

[3] = test system: SRC-1 (steroid receptor coactivator-1); experiment: immunohistochemical measurement of SRC-1 in the prostate; conditions: finasteride group, 0.28 mg/kg
Description: S3023: according to a dose of 4 mg/kg, which is calculated through equivalent conversion according to the body surface areas of humans and animals, hypodermically injecting the testosterone propionate injection to each SD rat for consecutive 30 days, and injecting normal saline of same volume to the SD rats of normal group, so as to finish modeling.
The high-dose group adopts an administration dose of 10 mg/kg (which is calculated through equivalent conversion according to the body surface areas of humans and animals; when the weight of the SD rat is 1 kg, 10 mg of the sterol composition in the pumpkin seed oil prepared through the example 1 is administrated), the medium-dose group adopts an administration dose of 3.3 mg/kg, and the low-dose group adopts an administration dose of 1.1 mg/kg, which respectively correspond to 20 times, 6.66 times, and 2.22 times the clinical dose. Before drug administration, suspensions of 4.5 mg/mL, 1.5 mg/mL, and 0.5 mg/mL are respectively prepared with the corn oil. […] The drug is administrated by gavage once a day; after administrating for consecutive 6 days, administration is stopped for one day; and an administration cycle is 4 week. […]

[4] = rat weight after 4 week administration in benign prostatic hyperplasia rats; conditions: finasteride group, 0.28 mg/kg by gavage once a day
[5] = test system: benign prostatic hyperplasia rats treated with testosterone propionate; experiment: prostate weight and prostate index in benign prostatic hyperplasia rats treated with testosterone propionate; conditions: finasteride group
Description: : modeling, particularly comprising steps of: […]: respectively weighing six groups of SD rats; […] The drug is administrated by gavage once a day; after administrating for consecutive 6 days, administration is stopped for one day; and an administration cycle is 4 week. Respectively weighing SD rats of six groups two hours after last administration and after fasting for 12 hours; killing the SD rats, separating the prostate of the SD rats through the tweezers, and weighing the prostate;

CC(C)(C)NC(=O)[C@H]1CC[C@H]2[C@@H]3CC[C@H]4NC(=O)C=C[C@]4(C)[C@H]3CC[C@]12C [Finasteride, finasteride]
genetic expression quantity of 5α-reductase, RT-qPCR (FIG. 5) [1]: obviously decreased | HE stain morphology of the prostate tissue (FIG. 3) [2]: part of the multiple-layer epithelial cells in the prostate tissue recover to the single-layer epithelial cells | volume of the prostate tissue compared with the model group (FIG. 2) [2]: obviously decreased | genetic expression of SRC-1, immunohistochemical method (FIG. 4) [3]: obviously decreased | Rat weight [4]: 439.2 ± 32.7 g | decrease of prostate weight compared with the model group ([5]; 0.28 mg/kg): 19.1% | Prostate weight ([5]; 0.28 mg/kg by gavage once a day, 4 week): 868.4 ± 188.3 mg
